Source: patent US20200187502A1, “MICROBIOCIDAL OXADIAZOLE DERIVATIVES” (SYNGENTA PARTICIPATIONS AG, priority 2017, published 2020)

Key:
[1] = system: Puccinia recondita f. Sp. Tritici; assay: Fungicidal activity, wheat leaf disc curative (brown rust); format: in vivo; settings: foliar, 200 ppm in the applied formulation, wheat leaf segments cv. Kanzler, curative (applied 1 day after inoculation), compared to untreated control, 6 to 8 days after application, read-out: disease control
Description: Leaf disks or leaf segments of various plant species are cut from plants grown in a greenhouse. The cut leaf disks or segments are placed in multiwell plates (24-well format) onto water agar. The leaf disks are sprayed with a test solution before (preventative) or after (curative) inoculation. Compounds to be tested are prepared as DMSO solutions (max. 10 mg/ml) which are diluted to the appropriate concentration with 0.025% Tween20 just before spraying. The inoculated leaf disks or segments are incubated under defined conditions (temperature, relative humidity, light, etc.) according to the respective test system. A single evaluation of disease level is carried out 3 to 14 days after inoculation, depending on the pathosystem. Percent disease control relative to the untreated check leaf disks or segments is then calculated.
Wheat leaf segments cv. Kanzler are placed on agar in multiwell plates (24-well format). The leaf segments are then inoculated with a spore suspension of the fungus. Plates were stored in darkness at 19° C. and 75% relative humidity. The formulated test compound diluted in water was applied 1 day after inoculation. The leaf segments were incubated at 19° C. and 75% relative humidity under a light regime of 12 hours light/12 hours darkness in a climate cabinet and the activity of a compound was assessed as percent disease control compared to untreated when an appropriate level of disease damage appears in untreated check leaf segments (6 to 8 days after application).
The following compounds at 200 ppm in the applied formulation give at least 80% disease control in this test when compared to untreated control leaf disks under the same conditions, which show extensive disease development.

[2] = system: Glomerella lacenarium (Colletotrichum lacenarium); assay: Fungicidal activity, liquid culture, cucumber preventative (anthracnose); format: cell-based; settings: 20 ppm in the applied formulation, liquid culture in PDB, inhibition of growth measured photometrically 3 to 4 days after application, compared to untreated control, read-out: disease control
Summary of the method: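 In liquid culture, cryo-stored conidia in potato dextrose broth were exposed to compound delivered from DMSO solution. Growth inhibition was measured photometrically after 3 to 4 days at 24° C.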

[3] = system: Puccinia recondita f. Sp. Tritici; assay: Fungicidal activity, wheat leaf disc preventative (brown rust); format: in vivo; settings: foliar, 200 ppm in the applied formulation, wheat leaf segments cv. Kanzler, compared to untreated control, 7 to 9 days after application, read-out: disease control
Summary of the method: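 Wheat cv. Kanzler leaf segments on agar were sprayed with formulated compound in water, then inoculated with spores 1 day later. Incubated at 19° C, 75% rh, 12 h light/12 h dark; percent disease control versus untreated scored 7 to 9 days after application.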

SMILES | pest or weed control at 200 ppm [1] | inhibition of growth at 20 ppm [2] | pest or weed control at 200 ppm [3]
CON(C)C(=O)N(Cc1ccc(-c2noc(C(F)(F)F)n2)s1)OC [Compound 1.6, 1,3-dimethoxy-1-methyl-3-[[5-[5-(trifluoromethyl)-1,2,4-oxadiazol-3-yl]-2-thienyl]methyl]urea] | ≥ 80% | ≥ 80% | ≥ 80%
CCOC(=O)N(Cc1ccc(-c2noc(C(F)(F)F)n2)s1)OC [Compound 1.28, ethyl N-methoxy-N-[[5-[5-(trifluoromethyl)-1,2,4-oxadiazol-3-yl]-2-thienyl]methyl]carbamate] | ≥ 80% | ≥ 80% | ≥ 80%
CNS(=O)(=O)N(Cc1ccc(-c2noc(C(F)(F)F)n2)s1)OC [Compound 1.32, 3-[5-[[methoxy(methylsulfamoyl)amino]methyl]-2-thienyl]-5-(trifluoromethyl)-1,2,4-oxadiazole] | ≥ 80% | ≥ 80% | ≥ 80%
CNC(=O)N(OC)C(C)c1ccc(-c2noc(C(F)(F)F)n2)s1 (stereo not shown) [Compound 1.50, 1-methoxy-3-methyl-1-[1-[5-[5-(trifluoromethyl)-1,2,4-oxadiazol-3-yl]-2-thienyl]ethyl]urea] | ≥ 80% | ≥ 80% | ≥ 80%
CCONC(=O)N(Cc1ccc(-c2noc(C(F)(F)F)n2)s1)OC [Compound 1.55, 3-ethoxy-1-methoxy-1-[[5-[5-(trifluoromethyl)-1,2,4-oxadiazol-3-yl]-2-thienyl]methyl]urea] | ≥ 80% | ≥ 80% | ≥ 80%
CON(Cc1ccc(-c2noc(C(F)(F)F)n2)s1)C(=O)N(CC(F)F)C1CC1 [Compound 1.59, 1-cyclopropyl-1-(2,2-difluoroethyl)-3-methoxy-3-[[5-[5-(trifluoromethyl)-1,2,4-oxadiazol-3-yl]-2-thienyl]methyl]urea] | ≥ 80% | ≥ 80% | ≥ 80%
CCCN(CC1CC1)C(=O)N(Cc1ccc(-c2noc(C(F)(F)F)n2)s1)OC [Compound 1.60, 1-(cyclopropylmethyl)-3-methoxy-1-propyl-3-[[5-[5-(trifluoromethyl)-1,2,4-oxadiazol-3-yl]-2-thienyl]methyl]urea] | ≥ 80% | ≥ 80% | ≥ 80%
CC(C)C(=O)N(Cc1ccc(-c2noc(C(F)(F)F)n2)s1)C1CC1 [Compound 4.3, N-cyclopropyl-2-methyl-N-[[5-[5-(trifluoromethyl)-1,2,4-oxadiazol-3-yl]-2-thienyl]methyl]propanamide] | ≥ 80% | ≥ 80% | ≥ 80%
CCOC(=O)N(Cc1ccc(-c2noc(C(F)(F)F)n2)s1)C1CC1 [Compound 4.4, ethyl N-cyclopropyl-N-[[5-[5-(trifluoromethyl)-1,2,4-oxadiazol-3-yl]-2-thienyl]methyl]carbamate] | ≥ 80% | ≥ 80% | ≥ 80%
CCN(Cc1ccc(-c2noc(C(F)(F)F)n2)s1)C(=O)C(C)OC (stereo not shown) [Compound 4.6, N-ethyl-2-methoxy-N-[[5-[5-(trifluoromethyl)-1,2,4-oxadiazol-3-yl]-2-thienyl]methyl]propanamide] | ≥ 80% | ≥ 80% | ≥ 80%
CC(C)C(=O)N(Cc1ccc(-c2noc(C(F)(F)F)n2)s1)C(C)C [Compound 4.11, N-isopropyl-2-methyl-N-[[5-[5-(trifluoromethyl)-1,2,4-oxadiazol-3-yl]-2-thienyl]methyl]propanamide] | ≥ 80% | ≥ 80% | ≥ 80%
COC(C)C(=O)N(Cc1ccc(-c2noc(C(F)(F)F)n2)s1)C1CC1 (stereo not shown) [Compound 4.14, N-cyclopropyl-2-methoxy-N-[[5-[5-(trifluoromethyl)-1,2,4-oxadiazol-3-yl]-2-thienyl]methyl]propanamide] | ≥ 80% | ≥ 80% | ≥ 80%
CCN(Cc1ccc(-c2noc(C(F)(F)F)n2)s1)C(=O)CNC(C)=O [Compound 4.23, 2-acetamido-N-ethyl-N-[[5-[5-(trifluoromethyl)-1,2,4-oxadiazol-3-yl]-2-thienyl]methyl]acetamide] | ≥ 80% | ≥ 80% | ≥ 80%
CCN(Cc1ccc(-c2noc(C(F)(F)F)n2)s1)C(=O)CC#N [Compound 4.29, 2-cyano-N-ethyl-N-[[5-[5-(trifluoromethyl)-1,2,4-oxadiazol-3-yl]-2-thienyl]methyl]acetamide] | ≥ 80% | ≥ 80% | ≥ 80%
CCCC(=O)N(C)Cc1ccc(-c2noc(C(F)(F)F)n2)s1 [Compound 4.34, N-methyl-N-[[5-[5-(trifluoromethyl)-1,2,4-oxadiazol-3-yl]-2-thienyl]methyl]butanamide] | ≥ 80% | ≥ 80% | ≥ 80%
CCC(=O)N(C)Cc1ccc(-c2noc(C(F)(F)F)n2)s1 [Compound 4.36, N-methyl-N-[[5-[5-(trifluoromethyl)-1,2,4-oxadiazol-3-yl]-2-thienyl]methyl]propanamide] | ≥ 80% | ≥ 80% | ≥ 80%
O=C(CC(F)(F)F)N(Cc1ccc(-c2noc(C(F)(F)F)n2)s1)OCC(F)F [Compound 4.68, N-(2,2-difluoroethoxy)-3,3,3-trifluoro-N-[[5-[5-(trifluoromethyl)-1,2,4-oxadiazol-3-yl]-2-thienyl]methyl]propanamide] | ≥ 80% | ≥ 80% | 
CCN(Cc1ccc(-c2noc(C(F)(F)F)n2)s1)C(=O)C1CC1(F)F (stereo not shown) [Compound 5.15, N-ethyl-2,2-difluoro-N-[[5-[5-(trifluoromethyl)-1,2,4-oxadiazol-3-yl]-2-thienyl]methyl]cyclopropanecarboxamide] | ≥ 80% | ≥ 80% | 
CC(C)N(Cc1ccc(-c2noc(C(F)(F)F)n2)s1)C(=O)C1CCC1 [Compound 5.29, N-isopropyl-N-[[5-[5-(trifluoromethyl)-1,2,4-oxadiazol-3-yl]-2-thienyl]methyl]cyclobutanecarboxamide] | ≥ 80% | ≥ 80% | 
CC(C)N(Cc1ccc(-c2noc(C(F)(F)F)n2)s1)C(=O)C1CCCO1 (stereo not shown) [Compound 5.31, N-isopropyl-N-[[5-[5-(trifluoromethyl)-1,2,4-oxadiazol-3-yl]-2-thienyl]methyl]tetrahydrofuran-2-carboxamide] | ≥ 80% | ≥ 80% | 
CC(C)N(Cc1ccc(-c2noc(C(F)(F)F)n2)s1)C(=O)C1CC1(F)F (stereo not shown) [Compound 5.33, 2,2-difluoro-N-isopropyl-N-[[5-[5-(trifluoromethyl)-1,2,4-oxadiazol-3-yl]-2-thienyl]methyl]cyclopropanecarboxamide] | ≥ 80% | ≥ 80% | 
